According to US20250214960A1, “COMPOUNDS HAVING ACTIVITY OF DEGRADING GSPT1 AND APPLICATION THEREOF” (SHANGHAI MEIZER PHARMACEUTICALS CO., LTD., priority 2021, published 2025):
Like-named read-outs stand apart in the source and are kept apart here.

Key:
[1] = tested on: MV-4-11 subcutaneous transplant tumor; assay: In vivo efficacy in MV-4-11 subcutaneous transplant tumors; design: species or system SCID mice; conditions: tumor volume on the 27th day
Description: Test Example 4: Compound's In Vivo Efficacy in MV-4-11 Subcutaneous Transplant Tumors Experimental method: Human acute monocytic leukemia cell line MV-4-11 was used to construct a subcutaneous transplant tumor model in SCID mice. Grouping: solvent group, reference compound (IV: 2 mg/kg, Day 0-12; IP: 20 mg/kg, Day 13-26) group, 5-17 and 5-22 (IV: 0.5 mg/kg, Day 0-12; IP: 10 mg/kg, Day 13-26), with 5 animals in each group, once a day. The tumor volume on the 27th day was measured and the tumor inhibition rate was calculated. Tumor inhibition rate (%)=[(tumor volume in solvent group−tumor volume in drug group)/tumor volume in solvent group]×100%

HNT-34 cells = assay: CTG method, inhibition of HNT-34 cell proliferation; type: cell-based; conditions: HNT-34, 72 hours; read-out: Cellular proliferation inhibition IC50
Description: (§1) Test Example 2: CTG Method for Detecting the Inhibitory Effect of Compounds of Formula on the Proliferation of HNT 34 or HL-60 Cells
(§2) HNT-34 or HL-60 cells were taken and cultured in RPMI1640 medium containing 20% fetal bovine serum. The cells were inoculated on a 96 well plate, with 1×10^4 cells per well, and incubated at 37° C. in a […] incubator. After adding the test compound, it was incubated for 72 hours. Then an appropriate amount of CTG reagent was added, the luminescence value was measured, and the inhibition rate was calculated.

HL-60 cells = assay: CTG method, inhibition of HL-60 cell proliferation; type: cell-based; conditions: Homo sapiens; HL-60, 72 hours; read-out: Cellular proliferation inhibition IC50
Description: as §1, §2

Jeko-1 cells = assay: CCK8 method, inhibition of Jeko-1 cell proliferation; type: cell-based; conditions: Homo sapiens; Jeko-1, 72 hours; read-out: Cellular proliferation inhibition IC50
Description: Test Example 3: CCK8 Method for Detecting Inhibition of Jeko-1 Cell Proliferation by Compound of Formula
Cell culture: The Jeko-1 cell line (human lymphoma cells) was cultured in RPMI-1640 complete medium containing […] and 1% penicillin streptomycin, and incubated in an incubator at 37° C., 5% CO2, and saturated humidity.
Cell laying: Jeko-1 cells in logarithmic growth phase was taken, centrifuged, and an appropriate amount of complete culture medium was added to obtain a single-cell suspension, a hemocytometer was used for cell counting, and a cell suspension of 1.5×10^5 cells/mL was prepared, the cells were inoculated into a 96 well culture plate at a rate of 100 μL cell suspension per well and incubated in a CO2 cell incubator for 24 hours.
CCK-8 detection: 72 hours after administration, 10% CCK-8 solution was added to each well, placed in a CO2 cell culture incubator, and incubated for 1-4 hours. The absorbance of each well was measured using a microplate reader at 450 nm.
Calculation of cellular proliferation inhibition rate:
Cellular proliferation inhibition rate (%)=[(Ac−As)/(Ac−Ab)]×100% • As: absorbance in experimental wells (including cells, culture medium, CCK-8 solution, and drug solution) • Ac: absorbance in control wells (including cells, culture medium, CCK-8 solution, without drugs) • Ab: absorbance in blank wells (including culture medium, CCK-8 solution, without cells or drugs)

GSPT1 protein = target: T1, GSPT1 protein (Homo sapiens, UniProt P15170+Q96SW2); assay: Western blot detection of degradation activity of GSPT1 protein in Jeko-1 cells; type: cell-based; conditions: JeKo-1, 24 h, read-out: GSPT1 degradation rate (%)
T1 construct: endogenous in cells; host or cells: Jeko-1
Method in brief: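 Jeko-1 cells in RPMI1640 with 20% FBS treated with compound or DMSO for 24 h at 37° C. GSPT1 detected in lysates by Western blot with GAPDH as internal reference. Band intensities quantified by gray-level analysis to calculate GSPT1 degradation rate.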

[2] = IV 0.5 mg/kg Day 0-12, IP 10 mg/kg Day 13-26, once a day

T1 sequence (P15170 whole entry): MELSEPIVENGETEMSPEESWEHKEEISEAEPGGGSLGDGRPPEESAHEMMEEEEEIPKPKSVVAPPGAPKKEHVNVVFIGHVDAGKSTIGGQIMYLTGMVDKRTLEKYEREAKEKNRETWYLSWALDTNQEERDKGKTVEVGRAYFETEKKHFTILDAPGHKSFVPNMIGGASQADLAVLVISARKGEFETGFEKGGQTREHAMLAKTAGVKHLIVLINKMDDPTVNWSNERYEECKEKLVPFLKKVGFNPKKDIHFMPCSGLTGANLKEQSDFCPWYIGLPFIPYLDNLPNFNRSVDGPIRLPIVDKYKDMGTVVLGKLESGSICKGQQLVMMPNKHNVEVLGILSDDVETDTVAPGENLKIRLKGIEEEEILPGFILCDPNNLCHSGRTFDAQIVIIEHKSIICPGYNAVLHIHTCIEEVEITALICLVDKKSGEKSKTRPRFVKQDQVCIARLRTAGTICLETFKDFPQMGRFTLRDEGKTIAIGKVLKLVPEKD
T1 sequence (Q96SW2 whole entry): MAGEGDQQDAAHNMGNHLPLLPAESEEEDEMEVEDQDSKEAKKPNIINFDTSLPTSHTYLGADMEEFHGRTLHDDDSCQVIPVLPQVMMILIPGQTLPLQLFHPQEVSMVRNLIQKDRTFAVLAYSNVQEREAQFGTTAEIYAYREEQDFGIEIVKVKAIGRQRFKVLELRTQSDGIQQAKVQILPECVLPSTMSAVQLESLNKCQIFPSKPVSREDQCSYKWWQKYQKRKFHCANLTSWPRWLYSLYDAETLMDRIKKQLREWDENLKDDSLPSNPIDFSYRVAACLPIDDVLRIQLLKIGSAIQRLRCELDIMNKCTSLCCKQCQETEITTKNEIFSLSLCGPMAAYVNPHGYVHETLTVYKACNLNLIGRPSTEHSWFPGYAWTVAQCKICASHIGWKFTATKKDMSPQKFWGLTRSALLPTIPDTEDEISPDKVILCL
T1 sequence (Q16531 whole entry partner): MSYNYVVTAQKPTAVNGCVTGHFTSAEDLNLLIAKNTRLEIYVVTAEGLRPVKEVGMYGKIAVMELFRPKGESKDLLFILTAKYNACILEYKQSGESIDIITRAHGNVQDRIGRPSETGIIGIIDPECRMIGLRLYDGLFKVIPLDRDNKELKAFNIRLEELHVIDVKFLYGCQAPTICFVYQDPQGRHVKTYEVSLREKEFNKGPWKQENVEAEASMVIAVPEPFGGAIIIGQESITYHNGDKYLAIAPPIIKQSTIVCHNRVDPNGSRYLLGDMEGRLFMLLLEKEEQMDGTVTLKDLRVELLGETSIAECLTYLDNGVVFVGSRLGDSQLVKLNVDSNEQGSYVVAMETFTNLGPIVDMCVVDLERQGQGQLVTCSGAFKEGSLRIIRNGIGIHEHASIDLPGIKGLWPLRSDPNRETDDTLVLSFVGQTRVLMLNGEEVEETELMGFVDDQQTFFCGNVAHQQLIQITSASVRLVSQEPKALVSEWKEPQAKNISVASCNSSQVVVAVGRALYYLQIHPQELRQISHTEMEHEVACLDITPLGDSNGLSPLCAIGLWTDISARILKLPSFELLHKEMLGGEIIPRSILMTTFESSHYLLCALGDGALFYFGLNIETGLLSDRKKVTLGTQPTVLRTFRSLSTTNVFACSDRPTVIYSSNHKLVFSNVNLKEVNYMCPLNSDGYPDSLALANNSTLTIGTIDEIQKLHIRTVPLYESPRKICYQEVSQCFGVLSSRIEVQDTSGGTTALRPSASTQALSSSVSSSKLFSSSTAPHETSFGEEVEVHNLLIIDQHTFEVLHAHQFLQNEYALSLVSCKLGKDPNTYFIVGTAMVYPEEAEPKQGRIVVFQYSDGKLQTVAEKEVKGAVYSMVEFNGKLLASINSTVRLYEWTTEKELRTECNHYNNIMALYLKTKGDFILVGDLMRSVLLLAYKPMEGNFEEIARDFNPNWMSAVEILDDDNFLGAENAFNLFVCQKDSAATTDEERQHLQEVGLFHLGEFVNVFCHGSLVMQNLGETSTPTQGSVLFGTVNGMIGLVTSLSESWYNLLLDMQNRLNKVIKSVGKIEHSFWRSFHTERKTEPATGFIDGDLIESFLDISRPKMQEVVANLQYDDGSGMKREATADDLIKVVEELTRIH

SMILES	Tumor inhibition rate (%) [1, 2]	IC50 (HNT-34 cells)	IC50 (HL-60 cells)	IC50 (Jeko-1 cells)	inhibition at 0.1 µM (GSPT1 protein; 100 nM, Jeko-1 cells, 24 hours)	inhibition at 10 µM (GSPT1 protein; 10 μM, Jeko-1 cells, 24 hours)	inhibition at 0.1 µM (GSPT1 protein)	inhibition at 10 µM (GSPT1 protein)	Tumor inhibition rate (%) ([1]; IV 2 mg/kg Day 0-12, IP 20 mg/kg Day 13-26, once a day)
CC(C)(C)OC(=O)N[C@H](C(=O)NCc1ccc2c(c1)CN(C1CCC(=O)NC1=O)C2=O)c1ccccc1Cl (stereo partly drawn) [Compound 5-17, Tert butyl ((1S)-1-(2-chlorophenyl)-2-((2-(2,6-dioxopyridin-3-yl)-1-oxoisoidoline-5-yl)methyl)amino)-2-oxoethyl) carbamate]	99.6%	3.2 nM	4.2 nM	0.1 nM	94.2%	95.6%			
CC(C)OC(=O)N[C@H](Cc1ccccc1)C(=O)NCc1ccc2c(c1)CN(C1CCC(=O)NC1=O)C2=O (stereo partly drawn) [Compound 5-22, Isopropyl ((2R)-1-((2-(2,6-dioxypiperidin-3-yl)-1-oxoisoindolin-5-yl)methyl)amino)-1-oxo-3-phenylprop-2-yl) carbamate]	99.8%	21.3 nM	18.6 nM	0.6 nM			77.7%	95.7%	
O=C1CCC(N2Cc3cc(CNC(=O)C(F)(F)c4ccc(Cl)cc4)ccc3C2=O)C(=O)N1 (stereo not shown) [Reference compound, reference compound]									28.3%
